Assay results reported in ChEMBL document CHEMBL5550206, “Identification of 6-Fluorine-Substituted Coumarin Analogues as POLRMT Inhibitors with High Potency and Safety for Treatment of Pancreatic Cancer” (J Med Chem, 2024).
The source made the active and inactive calls. The rule behind the calls is not given here.

Tests used:
[1] = target: DNA-directed RNA polymerase, mitochondrial (Homo sapiens) (UniProt O00411); assay: Inhibition of human POLRMT in human MIA PaCa-2 cells assessed as mitochondria coded ubiquinone oxidoreductase core subunit 1 (ND I) transcript level at 500 nM measured after 24 hrs by RT-qPCR analysis relative to control; set-up: scale not given: the % may be the effect or the level left
MIA PaCa-2 [2] = assay: Down-regulation of ND1 gene expression in human MIA PaCa-2 cells at 0.1 to 1 uM measured after 12 hrs by RT-qPCR analysis; type: functional, cell-based; conditions: dose 0.1-1 µM
MIA PaCa-2 [3] = assay: Inhibition of RNA pol I in human MIA PaCa-2 cells assessed as effect on 18S RNA level at 0.1 to 1 uM measured after 12 hrs by RT-qPCR analysis; type: cell-based; conditions: dose 0.1-1 µM
MIA PaCa-2 [4] = assay: Reduction of protein complexes of mitochondrial electron transport chain in human MIA PaCa-2 cells reduction in UQCRC2 protein level by Western blot analysis; type: functional, cell-based; conditions: dose 0.001-5 µM
MIA PaCa-2 [5] = assay: Effect on SDHB protein complexes in human MIA PaCa-2 cells reduction in NDUFB8 protein level at 0.01 to 10 uM by Western blot analysis; type: functional, cell-based; conditions: dose 0.01-10 µM
MIA PaCa-2 [6] = assay: Effect on ATP5A protein complexes in human MIA PaCa-2 cells reduction in NDUFB8 protein level at 0.01 to 10 uM by Western blot analysis; type: functional, cell-based; conditions: dose 0.01-10 µM
MIA PaCa-2 [7] = assay: Inhibition of colony formation in human MIA PaCa-2 cells at 5 to 200 nM incubated for 14 days by crystal violet staining based assay; type: functional, cell-based; conditions: dose 5-200 nM, time 14.0 day
MIA PaCa-2 [8] = assay: Induction of cell arrest in human MIA PaCa-2 cells assessed as accumulation of cells at G1 phase at 25 nM measured after 96 hrs by PI staining based flow cytometry (reference value: 64%); type: functional
MIA PaCa-2 [9] = assay: Induction of cell arrest in human MIA PaCa-2 cells assessed as accumulation of cells at G1 phase at 50 nM measured after 96 hrs by PI staining based flow cytometry (reference value: 64%); type: functional
MIA PaCa-2 [10] = assay: Induction of cell arrest in human MIA PaCa-2 cells assessed as accumulation of cells at G1 phase at 200 nM measured after 96 hrs by PI staining based flow cytometry (reference value: 64%); type: functional
MIA PaCa-2 [11] = assay: Induction of cell arrest in human MIA PaCa-2 cells assessed as accumulation of cells at S phase at 200 nM measured after 96 hrs by PI staining based flow cytometry (reference value: 16.8%); type: functional
MIA PaCa-2 [12] = assay: Induction of cell arrest in human MIA PaCa-2 cells assessed as accumulation of cells at S phase at 500 nM measured after 96 hrs by PI staining based flow cytometry (reference value: 16.8%); type: functional
MIA PaCa-2 [13] = assay: Induction of cell arrest in human MIA PaCa-2 cells assessed as accumulation of cells at G2 phase at 500 nM measured after 96 hrs by PI staining based flow cytometry (reference value: 11.2%); type: functional
MIA PaCa-2 [14] = assay: Induction of cell arrest in human MIA PaCa-2 cells assessed as early apoptotic cells at 25 nM measured after 4 days by Annexin V-FITC and propidium iodide (PI) staining based assay (reference value: 1.07%); type: functional; conditions: time 4 day
MIA PaCa-2 [15] = assay: Induction of cell arrest in human MIA PaCa-2 cells assessed as late apoptotic cells at 25 nM measured after 4 days by Annexin V-FITC and propidium iodide (PI) staining based assay (reference value: 3.23%); type: functional; conditions: time 4 day
MIA PaCa-2 [16] = assay: Induction of cell arrest in human MIA PaCa-2 cells assessed as necrotic cells at 25 nM measured after 4 days by Annexin V-FITC and propidium iodide (PI) staining based assay (reference value: 0.82%); type: functional; conditions: time 4 day
MIA PaCa-2 [17] = assay: Induction of cell arrest in human MIA PaCa-2 cells assessed as necrotic cells at 50 nM measured after 4 days by Annexin V-FITC and propidium iodide (PI) staining based assay (reference value: 0.82%); type: functional; conditions: time 4 day
MIA PaCa-2 [18] = assay: Induction of cell arrest in human MIA PaCa-2 cells assessed as late apoptotic cells at 100 nM measured after 4 days by Annexin V-FITC and propidium iodide (PI) staining based assay (reference value: 3.23%); type: functional; conditions: time 4 day
MIA PaCa-2 [19] = assay: Induction of cell arrest in human MIA PaCa-2 cells assessed as necrotic cells at 100 nM measured after 4 days by Annexin V-FITC and propidium iodide (PI) staining based assay (reference value: 0.82%); type: functional; conditions: time 4 day
MIA PaCa-2 [20] = assay: Induction of cell arrest in human MIA PaCa-2 cells assessed as late apoptotic cells at 200 nM measured after 4 days by Annexin V-FITC and propidium iodide (PI) staining based assay (reference value: 3.23%); type: functional; conditions: time 4 day
MIA PaCa-2 [21] = assay: Induction of cell arrest in human MIA PaCa-2 cells assessed as early apoptotic cells at 500 nM measured after 4 days by Annexin V-FITC and propidium iodide (PI) staining based assay (reference value: 1.07%); type: functional; conditions: time 4 day
MIA PaCa-2 [22] = assay: Reduction in basal oxygen consumption rate (OCR) in human MIA PaCa-2 cells incubated for 168 hrs; type: functional, cell-based; conditions: dose 1-200 nM
MIA PaCa-2 [23] = assay: Reduction in spare oxygen consumption rate (OCR) in human MIA PaCa-2 cells incubated for 168 hrs; type: functional, cell-based; conditions: dose 1-200 nM
MIA PaCa-2 [24] = assay: Effect on extracellular acidification rate (ECAR) in human MIA PaCa-2 cells at 1 to 200 nM incubated for 168 hrs; type: functional, cell-based; conditions: dose 1-200 nM
MIA PaCa-2 [25] = assay: Reduction in number of mitochondria in human MIA PaCa-2 cells measured after 96 hrs by Mito-Tracker Green and DAPI staining based assay; type: functional, cell-based; conditions: dose 10-1000 nM
[26] = target: DNA-directed RNA polymerase, mitochondrial (Homo sapiens) (UniProt O00411); assay: Thermal stabilization of human POLRMT in human MIA PaCa-2 cells assessed as melting temperature at 100 uM measured after 30 mins incubation by Wester blot analysis (reference value: 42 degreeC); type: cell-based
[27] = Antiproliferative activity against human […] cells assessed as cell viability measured after 168 hrs incubation by SRB assay; type: functional, cell-based
[28] = Antiproliferative activity against HUVEC cells assessed as cell viability measured after 168 hrs incubation by SRB assay; type: toxicity, cell-based; conditions: human
[29] = Toxicity in BALB/c mouse xenografted with human MIA PaCa-2 cells assessed as change in body weight at 25 to 100 mg/kg, iv once daily for 25 consecutive day after 2 weeks of cells injection; type: organism-based; conditions: in vivo, 600 h, dose 25-100 mg/kg, time 25 day
MIA PaCa-2 [30] = assay: Induction of apoptosis in human MIA PaCa-2 cells xenografted in BALB/c mouse at 25 to 100 mg/kg, iv once daily for 25 consecutive day after 2 weeks of cells injection by TUNEL staining based analysis; type: functional, organism-based; conditions: dose 25-100 mg/kg
[31] = Toxicity in BALB/c mouse xenografted with human MIA PaCa-2 cells assessed as pathological change in heart at 25 to 100 mg/kg, iv once daily for 25 consecutive day after 2 weeks of cells injection by H and E staining based optical microscopic analysis; type: organism-based; conditions: in vivo, 336 h, dose 25-100 mg/kg
[32] = Toxicity in BALB/c mouse xenografted with human MIA PaCa-2 cells assessed as pathological change in liver at 25 to 100 mg/kg, iv once daily for 25 consecutive day after 2 weeks of cells injection by H and E staining based optical microscopic analysis; type: organism-based; conditions: in vivo, 336 h, dose 25-100 mg/kg

Chain of DNA-directed RNA polymerase, mitochondrial (Homo sapiens) (O00411 whole entry): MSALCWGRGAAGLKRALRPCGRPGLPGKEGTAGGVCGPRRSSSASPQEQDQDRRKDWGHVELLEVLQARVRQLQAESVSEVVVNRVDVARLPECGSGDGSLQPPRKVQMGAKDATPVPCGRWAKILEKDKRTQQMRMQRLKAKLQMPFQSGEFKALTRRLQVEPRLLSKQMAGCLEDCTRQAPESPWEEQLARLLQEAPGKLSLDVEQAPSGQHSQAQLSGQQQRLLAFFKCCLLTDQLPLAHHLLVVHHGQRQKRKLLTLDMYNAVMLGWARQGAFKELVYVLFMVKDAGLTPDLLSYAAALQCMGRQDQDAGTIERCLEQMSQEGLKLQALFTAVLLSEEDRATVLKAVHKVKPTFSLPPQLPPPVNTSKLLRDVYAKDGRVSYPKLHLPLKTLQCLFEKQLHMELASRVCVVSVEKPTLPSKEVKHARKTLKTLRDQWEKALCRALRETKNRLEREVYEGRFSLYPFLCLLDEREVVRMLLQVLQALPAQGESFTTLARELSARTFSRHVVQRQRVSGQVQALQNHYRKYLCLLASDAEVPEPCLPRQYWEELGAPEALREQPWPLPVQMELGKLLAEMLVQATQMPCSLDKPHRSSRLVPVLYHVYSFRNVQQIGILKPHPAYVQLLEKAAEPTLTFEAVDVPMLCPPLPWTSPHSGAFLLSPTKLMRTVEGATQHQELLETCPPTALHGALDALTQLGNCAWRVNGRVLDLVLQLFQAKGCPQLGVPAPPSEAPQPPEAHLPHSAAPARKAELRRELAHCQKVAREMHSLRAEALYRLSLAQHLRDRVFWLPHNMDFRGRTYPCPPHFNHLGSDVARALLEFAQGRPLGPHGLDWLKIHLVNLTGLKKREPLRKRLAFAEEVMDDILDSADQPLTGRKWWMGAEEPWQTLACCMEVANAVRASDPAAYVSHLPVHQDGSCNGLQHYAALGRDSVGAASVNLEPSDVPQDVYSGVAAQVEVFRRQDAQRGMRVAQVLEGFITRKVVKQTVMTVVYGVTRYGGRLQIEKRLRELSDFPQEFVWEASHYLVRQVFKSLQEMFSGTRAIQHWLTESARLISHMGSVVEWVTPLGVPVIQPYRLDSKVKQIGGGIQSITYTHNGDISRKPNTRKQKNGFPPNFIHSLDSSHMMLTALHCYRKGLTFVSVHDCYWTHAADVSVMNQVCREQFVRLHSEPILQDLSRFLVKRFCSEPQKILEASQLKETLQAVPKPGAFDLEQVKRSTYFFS

## CCN(CC)C(=O)[C@@H](C)Oc1cc2oc(=O)cc(-c3ccccc3C)c2cc1F
[1]
  Activity: 9%
MIA PaCa-2 [2]
  Activity: Active
MIA PaCa-2 [3]
  inhibition: inactive
MIA PaCa-2 [4]
  Activity: Dose-Dependent Effect
MIA PaCa-2 [5]
  Activity: inactive
MIA PaCa-2 [6]
  Activity: inactive
MIA PaCa-2 [7]
  inhibition: Active
MIA PaCa-2 [8]
  Activity: 65.5%
MIA PaCa-2 [9]
  Activity: 67.1%
MIA PaCa-2 [10]
  Activity: 62.4%
MIA PaCa-2 [11]
  Activity: 17%
MIA PaCa-2 [12]
  Activity: 17.6%
MIA PaCa-2 [13]
  Activity: 11.6%
MIA PaCa-2 [14]
  Activity: 1.4%
MIA PaCa-2 [15]
  Activity: 3.32%
MIA PaCa-2 [16]
  Activity: 0.82%
MIA PaCa-2 [17]
  Activity: 0.76%
MIA PaCa-2 [18]
  Activity: 3.61%
MIA PaCa-2 [19]
  Activity: 0.94%
MIA PaCa-2 [20]
  Activity: 3.94%
MIA PaCa-2 [21]
  Activity: 0.77%
MIA PaCa-2 [22]
  Activity: Dose-Dependent Effect
MIA PaCa-2 [23]
  Activity: Dose-Dependent Effect
MIA PaCa-2 [24]
  Activity: inactive
MIA PaCa-2 [25]
  Activity: Dose-Dependent Effect
[26]
  Tm: 57 °C
[27]
  IC50: 4 nM
[28]
  IC50 at 168 h: > 50000 nM
[29]
  Activity: Non-Toxic
MIA PaCa-2 [30]
  Activity: inactive
[31]
  Activity: Non-Toxic
[32]
  Activity: Non-Toxic
